Measured values from patent publication US10442800B2, “Crystal forms of NBI-98854, preparation method and use thereof” (Crystal Pharmaceutical (Suzhou) Co., Ltd., priority 2016, dated 2019).

Tests used:
Assay type in all cases: physicochemical
[1] = Morphology test by polarized light microscopy (PLM); conditions: PLM image
Experimental: Form CS1 and Form CS2 in the present disclosure were tested by polarized light microscopy, and the results were depicted in FIG. 16 and FIG. 17. The morphologies of Form CS1 and Form CS2 are needle and block, respectively. Both forms disperse well and have little agglomeration. It can be seen from the PLM images that the morphologies of Form CS1 and Form CS2 in the present disclosure are suitable for the development of drug product.

[2] = Hygroscopicity experiment by Dynamic Vapor Sorption (DVS); conditions: 25° C.; for hygroscopicity class: Chinese Pharmacopoeia 2015 definition, 80% RH; for weight gain: DVS, at 80% RH
Experimental: Dynamic Vapor Sorption (DVS) is measured via a SMS (Surface Measurement Systems Ltd.) intrinsic DVS. Its control software is DVS-Intrinsic control software, and its analysis software is DVS-Intrinsic analysis software. Typical Parameters for DVS test are as follows:
Gas and flow rate: N2, 200 mL/min
RH range: 0% RH to 95% RH
14.3 mg of Form CS1 was placed in a DVS instrument and underwent a cycle of 0%-95%-0% RH. The DVS curve is substantially as depicted in FIG. 12. A weight gain of 0.08% is observed at 80% RH.
8.6 mg of Form CS2 was placed in a DVS instrument and underwent a cycle of 40%-95%-0%-95% RH. A weight gain of 0.56% is observed at 80% RH.

[3] = Stability assessment under storage (XRPD for crystalline form, HPLC for chemical purity); conditions: for stability (overall conclusion): 25° C./60% RH and 40° C./75% RH for 1 month; for Purity / Initial purity: HPLC; for Initial purity: initial sample before storage; for Crystalline form: XRPD
Text: X-ray powder diffraction pattern in the present disclosure was acquired by a Panalytical Empyrean X-ray powder diffractometer. The parameters of the X-ray powder diffraction method of the present disclosure were as follows:
High Performance Liquid Chromatography (HPLC) data in the present disclosure are collected from Agilent 1100 with diode array detector (DAD). The HPLC method parameters for purity test in the present disclosure are as follows:
1. Column: Waters Xbridge C18 150×4.6 mm, 5 μm
2. Mobile Phase: A: 0.1% TFA in H2O • B: 0.1% TFA in Acetonitrile • Gradient: […]
4. Injection Volume: 10 μL
5. Detection wavelength: 230 nm
6. Column Temperature: 40° C.
7. Diluent: 50% Acetonitrile
(§1) Form CS1 in the present disclosure was stored under different conditions of 25° C./60% RH and 40° C./75% RH for 1 month. Samples were taken at the end of 1 month. XRPD and HPLC were used to test the crystalline form and chemical purity. The XRPD overlay is shown in FIG. 14 (Above is the initial sample, in the middle is the sample placed under 25° C./60% RH for 1 month, at the bottom is the sample placed under 40° C./75% RH for 1 month).
as §1, with “CS2” for “CS1”, “The experimental results are summarized in Table 9. the” for “The”, “15” for “14”

SMILES: COc1cc2c(cc1OC)[C@H]1C[C@@H](OC(=O)[C@@H](N)C(C)C)[C@H](CC(C)C)CN1CC2 [Form CS1, (S)-2-amino-3-methyl-butyric acid (2R,3R,11bR)-3-isobutyl-9,10-dimethoxy-1,3,4 6,7,11b-hexahydro-2H-pyrido[2,1-a]isoquinolin-2-yl ester]
- morphology [1]: needle
- hygroscopicity class [2]: almost non hygroscopic
- weight gain [2]: 0.08%
- stability (overall conclusion) [3]: good stability
- Purity ([3]; after 25° C./60% RH (1 month)): 98.21%
- Purity ([3]; after 40° C./75% RH (1 month)): 97.76%
- Initial purity [3]: 98.02%
- Crystalline form ([3]; after 25° C./60% RH (1 month)): unchanged
- Crystalline form ([3]; after 40° C./75% RH (1 month)): unchanged

SMILES: COc1cc2c(cc1OC)[C@H]1C[C@@H](OC(=O)[C@@H](N)C(C)C)[C@H](CC(C)C)CN1CC2 [Form CS2, (S)-2-amino-3-methyl-butyric acid (2R,3R,11bR)-3-isobutyl-9,10-dimethoxy-1,3,4 6,7,11b-hexahydro-2H-pyrido[2,1-a]isoquinolin-2-yl ester]
- morphology [1]: block
- hygroscopicity class [2]: slightly hygroscopic
- weight gain [2]: 0.56%
- stability (overall conclusion) [3]: good stability
- Purity ([3]; after 25° C./60% RH (1 month)): 98.60%
- Purity ([3]; after 40° C./75% RH (1 month)): 97.38%
- Initial purity [3]: 98.34%
- Crystalline form ([3]; after 25° C./60% RH (1 month)): unchanged
- Crystalline form ([3]; after 40° C./75% RH (1 month)): unchanged
